Assay results reported in US20250041461A1, “[177LU] LUTETIUM-PSMA I&T COMPOSITION AND DOSIMETRY, KIT, METHOD OF MAKING, AND METHOD OF USING THEREOF” (Curium US LLC, priority 2023, published 2025).

Assay: Eclipse PK and dosimetry sub-study, 27 patients, cycle 1 biodistribution and dosimetry (SPECT/CT, OLINDA 2.2.3)
Assay type: in vivo, human
Details: for Absorbed Dose Mean (SD): ECLIPSE, after Cycle 1; for Absorbed Dose in Cycle 1, Mean / Absorbed Dose in Cycle 1, min: N = 16
Excerpt: Data Acquisition: All participating sites underwent a rigorous site setup process during which all dose calibrators, scanners, and gamma counters used in the sub-study were calibrated. Sites were allowed to enroll patients in the sub-study only after the completion and approval of all site setup processes by Invicro.
Patients underwent SPECT/CT imaging, with anatomical coverage typically extending from the salivary glands to the pelvis, following the administration of a targeted 7.4±10% GBq of ^177Lu-PSMA-I&T at cycle 1. SPECT/CT imaging was performed at four timepoints: 4 h, 24 h, 48 h, and 168 h post-injection. Additionally, a subset of patients imaged at Cycle 1 (16 out of 27), were also imaged at Cycle 3 (Table 7 in Appendix 1).
Image acquisition and reconstruction protocols were standardized across all imaging timepoints and patients at each site. Furthermore, each site consistently utilized the same SPECT/CT scanner throughout the duration of the study to ensure uniformity.
In general, raw projection data was acquired into a 128×128 matrix with medium energy general purpose (MEGP) collimation using a step and shoot acquisition mode, acquiring 60 projections per detector (180 degrees rotation per detector), 20 seconds per projection, with an acquisition zoom of 1.0, and a 20% (±10%) energy window centered over 208 keV.
A low-dose CT scan was performed prior to beginning the SPECT scan for attenuation correction. Sites were instructed to use the Institutional standard parameters for acquisition of the low-dose CT. Institutional standard reconstruction parameters were used. Scatter correction was required to be applied using a 20% (±10%) scatter window centered over 170 keV.
The imaging data was analysed using Invicro's VivoQuant software, a validated software used in a 21 CFR § 11-compliant workflow. The general quantification approach was based on the principles detailed in the Medical Internal Radiation Dose (MIRD) Pamphlet No. 16,^1 No 23,2 and No 26,3 as appropriate.
SPECT images were calibrated in units of Becquerel (Bq) using a calibration factor derived from a source of known activity, measured during site set up with the same acquisition and reconstruction parameters employed for patient imaging. A patient-specific calibration factor was also derived at each clinical time point after acquisition of the patient SPECT/CT. As a quality control measure, if the patient-specific calibration factor differed by more than 10% from the site set up calibration factor, an investigation was conducted.
Volume of interest (VOI) (kidneys, bladder, liver, lumbar vertebrae L2-L4, lacrimal glands, salivary glands [parotid and submandibular glands], and whole body) were delineated on each dataset by a trained image analyst. […] Organs were segmented either by drawing the entire contour of the organ, or by placing a sphere in a representative region of the organ and then multiplying by the organ's effective mass (based on patient's height and weight).^4 Segmentation methods for each organ are specified in Table 1 and were consistently applied to each patient.
Clearance of the radiopharmaceutical was derived from a data-appropriate fit of each organ's TAC. Depending on the TAC's shape, the data was fitted with the sum of one, two, or three exponentials, or using a rise and fall model. Fitting was performed with in-house Python software. TIACs were calculated through analytical integration of the curve fit extrapolated to infinity. […] A whole-body TAC was derived from delineating the imaged body. The remainder activity was determined by subtracting the cumulative organ TIACs from the whole body TIAC.
Organ TIACs were input into OLINDA 2.2.3 for the computation of organ and whole-body absorbed doses, using International Commission on Radiological Protection (ICRP)-103 weighing factors. The ICRP-89 derived male phantom was used for dose estimation. […]

[1] = Cycle 1, n = 26, patient 12-004 excluded
[2] = Lacrimal Glands (OLINDA sphere model)

## O=C([O-])CC[C@H](NC(=O)N[C@@H](CCCCNC(=O)CCCCCCC(=O)NCCCC[C@@H](NC(=O)[C@@H](Cc1ccccc1)NC(=O)[C@@H](Cc1ccc(O)c(I)c1)NC(=O)CC[C@H](C(=O)[O-])N1CCN(CC(=O)[O-])CCN(CC(=O)[O-])CCN(CC(=O)[O-])CC1)C(=O)[O-])C(=O)[O-])C(=O)[O-].[177Lu+3].[H+].[H+].[H+].[H+].[H+] [^177Lu-PSMA I&T, (3S,7S,26R,29R,32R,37R)-29-benzyl-32-(4-hydroxy-3-iodobenzyl)-5,13,20,28,31,34-hexaoxo-37-(4,7,10-tris(carboxymethyl)-1,4,7,10-tetraazacyclododecan-1-yl)-4,6,12,21,27,30,33-heptaazaheptatriacontane-1,3,7,26,37-pentacarboxylic acid; lutetium-177 (III)]
Bladder
  Absorbed Dose Mean (SD): 0.41 (0.05) Gy/GBq
Bone Marrow
  Absorbed Dose Mean (SD): 0.08 (0.12) Gy/GBq
Cycle 1, n = 26
  Absorbed Dose, Adrenals, Mean: 0.02 Gy/GBq
  Absorbed Dose, Adrenals, max: 0.08 Gy/GBq
  Absorbed Dose, Adrenals, median: 0.02 Gy/GBq
  Absorbed Dose, Adrenals, min: 0.01 Gy/GBq
  Absorbed Dose, Brain, Mean: 0.01 Gy/GBq
  Absorbed Dose, Brain, max: 0.07 Gy/GBq
  Absorbed Dose, Brain, median: 0.01 Gy/GBq
  Absorbed Dose, Brain, min: 0.00 Gy/GBq
  Absorbed Dose, Esophagus, Mean: 0.02 Gy/GBq
  Absorbed Dose, Esophagus, max: 0.07 Gy/GBq
  Absorbed Dose, Esophagus, median: 0.01 Gy/GBq
  Absorbed Dose, Esophagus, min: 0.00 Gy/GBq
  Absorbed Dose, Eyes, Mean: 0.01 Gy/GBq
  Absorbed Dose, Eyes, max: 0.07 Gy/GBq
  Absorbed Dose, Eyes, median: 0.01 Gy/GBq
  Absorbed Dose, Eyes, min: 0.00 Gy/GBq
  Absorbed Dose, Gallbladder wall, Mean: 0.02 Gy/GBq
  Absorbed Dose, Gallbladder wall, max: 0.07 Gy/GBq
  Absorbed Dose, Gallbladder wall, median: 0.01 Gy/GBq
  Absorbed Dose, Gallbladder wall, min: 0.00 Gy/GBq
  Absorbed Dose, Heart wall, Mean: 0.02 Gy/GBq
  Absorbed Dose, Heart wall, max: 0.07 Gy/GBq
  Absorbed Dose, Heart wall, median: 0.01 Gy/GBq
  Absorbed Dose, Heart wall, min: 0.00 Gy/GBq
  Absorbed Dose, Kidneys, Mean: 0.41 Gy/GBq
  Absorbed Dose, Kidneys, max: 0.81 Gy/GBq
  Absorbed Dose, Kidneys, median: 0.37 Gy/GBq
  Absorbed Dose, Kidneys, min: 0.17 Gy/GBq
  Absorbed Dose, Lacrimal Glands, Mean: 0.40 Gy/GBq
  Absorbed Dose, Lacrimal Glands, max: 1.19 Gy/GBq
  Absorbed Dose, Lacrimal Glands, median: 0.26 Gy/GBq
  Absorbed Dose, Lacrimal Glands, min: 0.04 Gy/GBq
  Absorbed Dose, Left colon, Mean: 0.47 Gy/GBq
  Absorbed Dose, Left colon, max: 1.53 Gy/GBq
  Absorbed Dose, Left colon, median: 0.41 Gy/GBq
  Absorbed Dose, Left colon, min: 0.01 Gy/GBq
  Absorbed Dose, Liver, Mean: 0.04 Gy/GBq
  Absorbed Dose, Liver, max: 0.10 Gy/GBq
  Absorbed Dose, Liver, median: 0.03 Gy/GBq
  Absorbed Dose, Liver, min: 0.01 Gy/GBq
  Absorbed Dose, Lungs, Mean: 0.01 Gy/GBq
  Absorbed Dose, Lungs, max: 0.07 Gy/GBq
  Absorbed Dose, Lungs, median: 0.01 Gy/GBq
  Absorbed Dose, Lungs, min: 0.00 Gy/GBq
  Absorbed Dose, Osteogenic cells, Mean: 0.05 Gy/GBq
  Absorbed Dose, Osteogenic cells, max: 0.29 Gy/GBq
  Absorbed Dose, Osteogenic cells, median: 0.02 Gy/GBq
  Absorbed Dose, Osteogenic cells, min: 0.00 Gy/GBq
  Absorbed Dose, Pancreas, Mean: 0.02 Gy/GBq
  Absorbed Dose, Pancreas, max: 0.07 Gy/GBq
  Absorbed Dose, Pancreas, median: 0.01 Gy/GBq
  Absorbed Dose, Pancreas, min: 0.00 Gy/GBq
  Absorbed Dose, Prostate, Mean: 0.02 Gy/GBq
  Absorbed Dose, Prostate, max: 0.07 Gy/GBq
  Absorbed Dose, Prostate, median: 0.01 Gy/GBq
  Absorbed Dose, Prostate, min: 0.01 Gy/GBq
  Absorbed Dose, Rectum, Mean: 0.44 Gy/GBq
  Absorbed Dose, Rectum, max: 1.46 Gy/GBq
  Absorbed Dose, Rectum, median: 0.39 Gy/GBq
  Absorbed Dose, Rectum, min: 0.01 Gy/GBq
  Absorbed Dose, Red Marrow, Mean: 0.08 Gy/GBq
  Absorbed Dose, Red Marrow, max: 0.49 Gy/GBq
  Absorbed Dose, Red Marrow, median: 0.03 Gy/GBq
  Absorbed Dose, Red Marrow, min: 0.00 Gy/GBq
  Absorbed Dose, Right Colon, max: 0.82 Gy/GBq
  Absorbed Dose, Right Colon, median: 0.22 Gy/GBq
  Absorbed Dose, Right Colon, min: 0.01 Gy/GBq
  Absorbed Dose, Right colon, Mean: 0.25 Gy/GBq
  Absorbed Dose, Small intestine, Mean: 0.05 Gy/GBq
  Absorbed Dose, Small intestine, max: 0.15 Gy/GBq
  Absorbed Dose, Small intestine, median: 0.04 Gy/GBq
  Absorbed Dose, Small intestine, min: 0.01 Gy/GBq
  Absorbed Dose, Spleen, Mean: 0.03 Gy/GBq
  Absorbed Dose, Spleen, max: 0.11 Gy/GBq
  Absorbed Dose, Spleen, median: 0.02 Gy/GBq
  Absorbed Dose, Spleen, min: 0.01 Gy/GBq
  Absorbed Dose, Stomach Wall, Mean: 0.02 Gy/GBq
  Absorbed Dose, Stomach Wall, max: 0.07 Gy/GBq
  Absorbed Dose, Stomach Wall, median: 0.01 Gy/GBq
  Absorbed Dose, Stomach Wall, min: 0.00 Gy/GBq
  Absorbed Dose, Testes, Mean: 0.01 Gy/GBq
  Absorbed Dose, Testes, max: 0.07 Gy/GBq
  Absorbed Dose, Testes, median: 0.01 Gy/GBq
  Absorbed Dose, Testes, min: 10.00 Gy/GBq
  Absorbed Dose, Thymus, Mean: 0.01 Gy/GBq
  Absorbed Dose, Thymus, max: 0.07 Gy/GBq
  Absorbed Dose, Thymus, median: 0.01 Gy/GBq
  Absorbed Dose, Thymus, min: 0.00 Gy/GBq
  Absorbed Dose, Thyroid, Mean: 0.01 Gy/GBq
  Absorbed Dose, Thyroid, max: 0.07 Gy/GBq
  Absorbed Dose, Thyroid, median: 0.01 Gy/GBq
  Absorbed Dose, Thyroid, min: 0.00 Gy/GBq
  Absorbed Dose, Total Body, Mean: 0.02 Gy/GBq
  Absorbed Dose, Total Body, max: 0.09 Gy/GBq
  Absorbed Dose, Total Body, median: 0.02 Gy/GBq
  Absorbed Dose, Total Body, min: 0.01 Gy/GBq
  Absorbed Dose, Urinary Bladder wall, Mean: 0.41 Gy/GBq
  Absorbed Dose, Urinary Bladder wall, max: 0.50 Gy/GBq
  Absorbed Dose, Urinary Bladder wall, median: 0.41 Gy/GBq
  Absorbed Dose, Urinary Bladder wall, min: 0.33 Gy/GBq
  absorbed dose, kidneys: 0.41±0.15 Gy/GBq
  absorbed dose, left colon: 0.47±0.31 Gy/GBq
  absorbed dose, rectum: 0.44±0.30 Gy/GBq
  absorbed dose, urinary bladder: 0.41±0.05 Gy/GBq
[1]
  Absorbed Dose, Salivary Glands, Mean: 0.19 Gy/GBq
  Absorbed Dose, Salivary Glands, max: 0.80 Gy/GBq
  Absorbed Dose, Salivary Glands, median: 0.15 Gy/GBq
  Absorbed Dose, Salivary Glands, min: 0.03 Gy/GBq
Heart
  Absorbed Dose Mean (SD): 0.02 (0.02) Gy/GBq
Kidneys
  Absorbed Dose Mean (SD): 0.41 (0.15) Gy/GBq
[2]
  Absorbed Dose in Cycle 1, Mean: 0.39 Gy/GBq
  Absorbed Dose in Cycle 1, min: 0.04 Gy/GBq
Lacrimal Glands
  Absorbed Dose Mean (SD): 0.40 (0.36) Gy/GBq
Left Colon
  Absorbed Dose Mean (SD): 0.47 (0.31) Gy/GBq
Liver
  Absorbed Dose Mean (SD): 0.04 (0.02) Gy/GBq
  Absorbed Dose in Cycle 1, min: 0.0 Gy/GBq
Right Colon
  Absorbed Dose Mean (SD): 0.25 (0.17) Gy/GBq
Salivary Glands
  Absorbed Dose Mean (SD): 0.19 (0.16) Gy/GBq
Spleen
  Absorbed Dose Mean (SD): 0.03 (0.02) Gy/GBq
Testes
  Absorbed Dose in Cycle 1, Mean: 0.0 Gy/GBq
Thyroid
  Absorbed Dose Mean (SD): 0.01 (0.02) Gy/GBq
Urinary Bladder wall
  Absorbed Dose in Cycle 1, Mean: 0.40 Gy/GBq
Cycle 1
  absorbed dose, lacrimal glands: 0.40±0.36 Gy/GBq
Cycle 1, image-based (L2-L4)
  mean absorbed dose, bone marrow (red marrow): 0.08±0.12 Gy/GBq
Cycle 1, patient 12-004 excluded
  absorbed dose, salivary glands: 0.19±0.16 Gy/GBq
